Results from BindingDB's records for doi:10.1021/jm900036m (The University of Newcastle, 2009).

Assay: Inhibition of dynamin 1-mediated endocytosis internalization of Tf-A594 in human U2OS cells pretreated for 30 mins

Row | IC50 [µM] | Structure (SMILES)
1 | 58.2 | CCCCCCCCCCNC(=O)/C(C#N)=C/c1c(C)n(CCN(C)C)c2ccccc12 [2-Cyano-N-decyl-3-[1-(2-dimethylaminoethyl)-2-methyl-1Hindol-3-yl]-acrylamide]
2 | 10.8 | CCCCCCCCNC(=O)/C(C#N)=C/c1c(C)n(CCCN(C)C)c2ccccc12 [2-Cyano-N-octyl-3-[1-(3-dimethylaminopropyl)-2-methyl-1Hindol-3-yl]-acrylamide]
3 | 13.2 | CCCCCCCCNC(=O)/C(C#N)=C/c1c(C)n(CCN(C)C)c2ccccc12 [2-Cyano-N-octyl-3-[1-(2-dimethylaminoethyl)-2-methyl-1Hindol-3-yl]-acyrlamide]
4 | 14.3 | CCCCCCNC(=O)/C(C#N)=C/c1c(C)n(CCCN(C)C)c2ccccc12 [2-Cyano-N-hexyl-3-[1-(3-dimethylaminopropyl)-2-methyl-1Hindol-3-yl]-acrylamide]
5 | 5 | CCCCCCCCNC(=O)/C(C#N)=C/c1cn(CCCN(C)C)c2ccccc12 [2-Cyano-N-octyl-3-(1-(3-dimethylaminopropyl)-1H-indol-3-yl)-acrylamide]
